Laboratory results taken from patent publication US20060120972A1, “9-(N-methyl-piperidyliden-4)-thioxanthene for treatment of pulmonary hypertension” (priority 2004, published 2006).
“Also recorded” adds a separate entry of the source.

What was measured:
[1] = test system: plasma protein extravasation at the blood vessels within the Dura mater after mCPP application; assay: mCPP model in guinea pigs: plasma protein extravasation (EvansBlue); format: in vivo; conditions: for Plasma protein extravasation as EvansBlue extinction at 600 nm: 2 min before 1 μg/kg mCPP, guinea pig dura mater
Description: In accordance to the protocol published by Markowitz et. al; (1987) and Olesen et. al; (2000), guinea pigs were used to determine the amount of plasma protein released at the blood vessels within the Dura mater after mCPP application.
2 minutes later 1 μg/kg body weight mCPP were injected and followed by the i.v. application of EvansBlue as marker for the protein plasma extravasation. 15 minutes later animals were transcranial perfused and decapitated. A defined area of the dura mater was isolated and transferred into an eppendorf tube containing 200 μl formamid. Because EvansBlue binds to plasma protein, the amount of bound marker dye is a measure of extravasation of plasma protein. Formamid dissolves EvansBlue from the protein which can be calorimetric detected and quantified at 600 nm.

[2] = target: T1, human Histamine H4 receptor (Homo sapiens, UniProt Q9H3N8); assay: Cloned human H4 receptor binding assay
T1 construct: expressed in transfected cells
T1 sequence (Q9H3N8 whole entry): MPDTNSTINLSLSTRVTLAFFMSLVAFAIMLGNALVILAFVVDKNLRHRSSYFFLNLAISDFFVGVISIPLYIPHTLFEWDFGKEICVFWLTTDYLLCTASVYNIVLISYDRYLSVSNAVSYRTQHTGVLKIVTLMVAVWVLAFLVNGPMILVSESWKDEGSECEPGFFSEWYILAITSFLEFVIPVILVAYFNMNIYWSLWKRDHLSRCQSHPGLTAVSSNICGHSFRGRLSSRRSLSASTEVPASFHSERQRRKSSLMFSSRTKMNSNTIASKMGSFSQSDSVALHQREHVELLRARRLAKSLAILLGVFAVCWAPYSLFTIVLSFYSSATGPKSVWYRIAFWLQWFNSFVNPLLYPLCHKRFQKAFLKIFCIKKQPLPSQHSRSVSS
Description: (§1) CHO cells were stably transfected with an expression plasmid pCineohH1, pCineohH2, pCineohH3 and pCineohH4 encoding the human Histamine H1, H2, H3 or H4 receptor, respectively. Recombinant cell lines were harvested after confluent growth, homogenized in ice-cold 50 mM Na2/potassium phosphate buffer (pH 7.4) and used for radioligand binding studies. Cell homogenates (40-50 μg of protein) were incubated for 30 min at 25° C. in 50 mM Na2/potassium phosphate buffer (pH 7.4) in 400 μl with the various concentrations of either [^3H]-mepyramine, [^3H]-thiotidine, [^3H]-R-a-Methylhistamine, and [^3H]-pyramilamine for cells expressing recombinant human H1, H2, H3 and H4 receptors, respectively. The nonspecific binding was defined in the presence of 1 μM mianserin. […] The incubations were stopped by rapid dilution with 3 ml of ice-cold 50 mM Na2/potassium phosphate buffer (pH 7.4). […] Filters were washed twice in 3 ml of buffer and radioactivity retained on the filters was measured by liquid scintillation counting.
(§2) EC80 values were calculated from corresponding dose-response experiment using 5-HT, histamine, epinephrine (alpha 1A adrenergic receptor), dopamine (D2 dopaminergic receptor), and acetylcholine (M1 muscarinic receptor) as agonists.

human 5-HT2B receptor = target: T2, human 5-HT2B receptor (Homo sapiens, UniProt P41595); assay: Cloned human 5-HT2B receptor binding assay; conditions: 5-HT2B versus 5HT2C; listed as compound of the preferred embodiments
T2 construct: expressed in transfected cells; host or cells: HEK 293 (transient)
T2 sequence (P41595 whole entry): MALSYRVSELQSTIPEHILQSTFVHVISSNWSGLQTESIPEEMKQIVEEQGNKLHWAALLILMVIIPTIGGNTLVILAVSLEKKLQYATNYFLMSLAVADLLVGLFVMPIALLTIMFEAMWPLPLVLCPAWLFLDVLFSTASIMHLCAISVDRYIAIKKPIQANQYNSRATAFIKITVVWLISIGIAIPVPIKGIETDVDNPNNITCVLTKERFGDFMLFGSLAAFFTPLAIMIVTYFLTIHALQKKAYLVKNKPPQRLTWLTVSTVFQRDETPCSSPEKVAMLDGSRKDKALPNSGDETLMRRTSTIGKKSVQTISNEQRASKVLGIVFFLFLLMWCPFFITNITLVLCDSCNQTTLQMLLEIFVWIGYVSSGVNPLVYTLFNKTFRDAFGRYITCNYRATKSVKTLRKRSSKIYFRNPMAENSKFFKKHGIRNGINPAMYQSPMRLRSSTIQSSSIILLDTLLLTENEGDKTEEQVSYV

[3] = target: T3, human Histamine H2 receptor (Homo sapiens, UniProt P25021); assay: Cloned human H2 receptor binding assay
T3 construct: expressed in transfected cells
T3 sequence (P25021 whole entry): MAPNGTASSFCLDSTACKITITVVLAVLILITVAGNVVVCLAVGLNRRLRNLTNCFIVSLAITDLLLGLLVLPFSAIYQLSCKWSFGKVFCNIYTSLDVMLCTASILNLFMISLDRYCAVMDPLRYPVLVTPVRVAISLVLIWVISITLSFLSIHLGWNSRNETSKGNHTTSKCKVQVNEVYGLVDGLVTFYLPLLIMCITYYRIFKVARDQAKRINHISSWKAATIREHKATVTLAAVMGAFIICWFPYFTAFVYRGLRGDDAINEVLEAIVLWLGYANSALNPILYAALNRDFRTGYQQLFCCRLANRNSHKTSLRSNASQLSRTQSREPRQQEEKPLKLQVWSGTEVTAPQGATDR
Description: as §1, §2

[4] = target: T4, human Histamine H3 receptor (Homo sapiens, UniProt Q9Y5N1); assay: Cloned human H3 receptor binding assay
T4 construct: expressed in transfected cells
T4 sequence (Q9Y5N1 whole entry): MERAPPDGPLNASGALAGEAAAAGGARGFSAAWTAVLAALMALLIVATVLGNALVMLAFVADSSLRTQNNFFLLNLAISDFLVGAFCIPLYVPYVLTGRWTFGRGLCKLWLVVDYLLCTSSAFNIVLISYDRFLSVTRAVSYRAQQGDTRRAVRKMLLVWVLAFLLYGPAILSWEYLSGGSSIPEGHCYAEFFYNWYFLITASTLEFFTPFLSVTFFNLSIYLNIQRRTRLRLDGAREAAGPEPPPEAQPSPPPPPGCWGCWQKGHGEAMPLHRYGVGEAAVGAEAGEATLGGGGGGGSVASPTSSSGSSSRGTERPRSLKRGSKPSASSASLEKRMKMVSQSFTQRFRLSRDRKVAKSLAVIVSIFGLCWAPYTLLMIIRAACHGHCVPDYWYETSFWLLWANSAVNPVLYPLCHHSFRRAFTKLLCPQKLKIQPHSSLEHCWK
Description: as §1, §2

[5] = target: T5, human Histamine H1 receptor (Homo sapiens, UniProt P35367); assay: Cloned human H1 receptor binding assay
T5 construct: expressed in transfected cells
T5 sequence (P35367 whole entry): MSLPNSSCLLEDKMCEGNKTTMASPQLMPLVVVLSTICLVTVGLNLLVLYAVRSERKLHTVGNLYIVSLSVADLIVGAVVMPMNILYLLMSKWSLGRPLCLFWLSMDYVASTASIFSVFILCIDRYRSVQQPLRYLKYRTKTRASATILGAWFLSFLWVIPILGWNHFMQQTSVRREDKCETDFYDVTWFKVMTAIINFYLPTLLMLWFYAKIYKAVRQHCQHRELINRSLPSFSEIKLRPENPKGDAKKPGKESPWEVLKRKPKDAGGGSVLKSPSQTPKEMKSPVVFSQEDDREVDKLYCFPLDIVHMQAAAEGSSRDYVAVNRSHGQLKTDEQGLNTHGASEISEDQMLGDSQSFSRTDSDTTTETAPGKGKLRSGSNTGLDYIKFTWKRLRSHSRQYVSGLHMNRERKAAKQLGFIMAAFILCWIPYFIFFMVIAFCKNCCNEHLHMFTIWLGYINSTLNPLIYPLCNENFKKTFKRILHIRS
Description: as §1, §2

## CC[C@@H](CO)NC(=O)[C@@H]1C=C2c3cccc4c3c(cn4C)C[C@H]2N(C)C1 [Methysergide]
[1]; dose 0.1 μg/kg i.v.
  Plasma protein extravasation as EvansBlue extinction at 600 nm: 0.265 ± 0.034
[1]; dose 1 μg/kg i.v.
  Plasma protein extravasation as EvansBlue extinction at 600 nm: 0.250 ± 0.027
[1]; dose 10 μg/kg i.v.
  Plasma protein extravasation as EvansBlue extinction at 600 nm: 0.228 ± 0.064
[1]; dose 100 μg/kg i.v.
  Plasma protein extravasation as EvansBlue extinction at 600 nm: 0.189 ± 0.026

## CN1CCC(=C2c3ccccc3Sc3ccccc32)CC1 [Pimethixene, 9-(N-methyl-piperidyliden-4)-thioxanthene]
[2]
  Affinity for the human H4 receptor (in words): no affinity
  pKi values H4: low activity
[1]; dose 0.001 μg/kg i.v.
  Plasma protein extravasation as EvansBlue extinction at 600 nm: 0.269 ± 0.022
[1]; dose 0.01 μg/kg i.v.
  Plasma protein extravasation as EvansBlue extinction at 600 nm: 0.157 ± 0.040
[1]; dose 0.1 μg/kg i.v.
  Plasma protein extravasation as EvansBlue extinction at 600 nm: 0.126 ± 0.028
Human 5-HT2B receptor
  Selectivity of affinity for 5-HT2B receptor versus 5HT2C receptor: selective affinity; also recorded: much higher affinity
[3]
  Affinity for the human H2 receptor (in words): no affinity
  pKi values H2: low activity
[4]
  Affinity for the human H3 receptor (in words): no affinity
  pKi values H3: low activity
[5]
  Affinity to the human H1 receptor (in words): high affinity

## CN1CCC(=C2c3ccccc3CCc3sccc32)CC1 [Pizotifen]
[1]; dose 1 μg/kg i.v.
  Plasma protein extravasation as EvansBlue extinction at 600 nm: 0.404 ± 0.025
[1]; dose 10 μg/kg i.v.
  Plasma protein extravasation as EvansBlue extinction at 600 nm: 0.144 ± 0.035
[1]; dose 100 μg/kg i.v.
  Plasma protein extravasation as EvansBlue extinction at 600 nm: 0.230 ± 0.018

## Clc1cccc(N2CCNCC2)c1 [mCPP]
[1]; mCPP 1 μg/kg alone, no test compound, negative control 0,130±0,024
  EvansBlue extinction, positive control (mCPP agonist): 0,300±0,038
